Experimental data as given in patent publication US6395732B1, “Pyrimidin-aminomethyl-pyridine derivatives, their preparation and their use in the control of helicobacter bacteria” (BYK Gulden Lomberg Chemische Fabrik GmbH, priority 1998, dated 2002).

Key:
[1] = tested on: Helicobacter pylori; assay: Activity against Helicobacter pylori, agar method of Iwahi et al. (MIC 50); assay type: cell-based; settings: Helicobacter pylori, 96 h; Columbia agar (Oxoid), growth period of 4 days; approximate values; read-out: Appr. MIC 50
Text: The compounds of the formula I were investigated with respect to their activity against Helicobacter pylori following the method described by Tomoyuki Iwahi et al. (Antimicrobial Agents and Chemotherapy, 1991, 490-496) using Columbia agar (Oxoid) and a growth period of 4 days.

Cc1nc(C)c(Cl)c(NCc2nccc(N(C)CCCSCCn3c([N+](=O)[O-])cnc3C)c2Cl)n1 [Compound 18, (5-Chloro-2,6-dimethylpyrimidin-4-yl)-[3-chloro-4-(methyl-{3-[2-(2-methyl-5nitroimidazol-1-yl)ethylsulfanyl]propyl}amino)pyridin-2-ylmethyl]amine]
melting point: 123 to 126 °C | MIC50 [1]: ≤ 0.1 µg/mL

Cc1nc(C)c(Cl)c(NCc2nccc(SCCCSCC3CCCN(C)C3)c2C)n1 (centres unmarked) [Compound 22, (5-Chloro-2,6-dimethylpyrimidin-4-yl)-{3-methyl-4-[3-(1-methylpiperidin-3-ylmethylsulfanyl)propylsulfanyl]pyridin-2-ylmethyl}amine]
melting point: 92 to 94 °C | MIC50 [1]: ≤ 0.1 µg/mL

Cc1nc(C)c(Cl)c(NCc2nccc(SCCCSc3sccc3[N+](=O)[O-])c2C)n1 [Compound 40, (5-Chloro-2,6-dimethyl-pyrimidin-4-yl)-{3-methyl-4-[3-(3-nitro-thiophen-2-ylsulfanyl)-propylsulfanyl]-pyridin-2-ylmethyl}-amine]
melting point: 174 to 180 °C | MIC50 [1]: ≤ 0.1 µg/mL

Cc1nc(C)c(Cl)c(NCc2nccc(SCCOCCSCc3ccncc3)c2C)n1 [Compound 42, (5-Chloro-2,6-dimethyl-pyrimidin-4-yl)-(3-methyl-4-{2-[2-(pyridin-4-ylmethylsulfanyl)-ethoxy]-ethylsulfanyl}-pyridin-2-ylmethyl)-amine]
melting point: 68 to 71 °C | MIC50 [1]: ≤ 0.1 µg/mL
